Laboratory results from patent publication US20210267203A1, “PESTICIDALLY ACTIVE AZOLE-AMIDE COMPOUNDS” (SYNGENTA PARTICIPATIONS AG, priority 2018, published 2021).

Columns and labels:
Type in all cases: in vivo
[1] = test system: Diabrotica Balteata (Corn Root Worm); test: Example B1: Diabrotica balteata (corn root worm), maize sprouts sprayed, L2 larvae; settings: 96 h, application rate 200 ppm, 4 days after infestation, read-out: effect in at least one of the two categories (mortality or growth inhibition)
Method in brief: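 Maize sprouts on agar sprayed with aqueous dilutions of 10,000 ppm DMSO stocks, dried, then infested with 6–10 L2 larvae per well. Mortality and growth inhibition scored against untreated samples 4 days after infestation; rates of 200 ppm.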

[2] = test system: Chilo suppressalis (Striped Rice Stemborer); test: Example B4: Chilo suppressalis (striped rice stemborer), artificial diet, L2 larvae; settings: 144 h, application rate 200 ppm, 6 days after infestation
Description: Example B4: Chilo suppressalis (Striped Rice Stemborer)
24-well microtiter plates with artificial diet were treated with aqueous test solutions prepared from 10,000 ppm DMSO stock solutions by pipetting. After drying, the plates were infested with L2 larvae (6-8 per well). The samples were assessed for mortality, anti-feeding effect, and growth inhibition in comparison to untreated samples 6 days after infestation. Control of Chilo suppressalis by a test sample is given when at least one of the categories (i.e. mortality, anti-feedant effect, and growth inhibition) is higher than the untreated sample.

[3] = test system: Plutella xylostella (Diamond Back Moth); test: Example B5: Plutella xylostella (diamond back moth), artificial diet, 24-well, eggs; settings: 192 h, application rate 200 ppm, 8 days after infestation, read-out: effect in at least one of the two categories (mortality or growth inhibition)
Method in brief: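 Artificial diet in 24-well plates treated with aqueous dilutions of 10,000 ppm DMSO stocks, dried, then infested with Plutella eggs. Mortality and growth inhibition scored against untreated samples 8 days after infestation; activity rated at 200 ppm application rate.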

[4] = test system: Myzus persicae (Green Peach Aphid); test: Example B8: Myzus persicae (green peach aphid), intrinsic activity; settings: 120 h, test rate 12 ppm, sucrose solution, 24-well, 5 days after infestation
Source text: Example B8: Myzus persicae (Green Peach Aphid), Intrinsic Activity
Test compounds prepared from 10,000 ppm DMSO stock solutions were applied by pipette into 24-well microtiter plates and mixed with sucrose solution. The plates were closed with a stretched Parafilm. A plastic stencil with 24 holes was placed onto the plate and infested pea seedlings were placed directly on the Parafilm. The infested plate was closed with a gel blotting paper and another plastic stencil and then turned upside down. The samples were assessed for mortality 5 days after infestation.

[5] = test system: Spodoptera littoralis (Egyptian Cotton Leaf Worm); test: Example B9: Spodoptera littoralis (Egyptian cotton leaf worm), cotton leaf discs sprayed, L1 larvae; settings: foliar, 72 h, application rate 200 ppm, 3 days after infestation
Method in brief: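 Leaf discs on agar sprayed with aqueous dilutions from 10,000 ppm DMSO stock, dried, then infested with five L1 larvae. Mortality, anti-feeding and growth inhibition scored against untreated samples 3 days after infestation; control counted when any category exceeds untreated.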

[6] = test system: Spodoptera littoralis (Egyptian Cotton Leaf Worm); test: Example B10: Spodoptera littoralis (Egyptian cotton leaf worm), uptake by lettuce roots from agar, eggs; settings: 144 h, test rate 12.5 ppm, lettuce root uptake, 6 days after infestation, read-out: effect in at least one of the three categories (mortality, anti-feeding, or growth inhibition)
Source text: Example B10: Spodoptera littoralis (Egyptian Cotton Leaf Worm)
Test compounds were applied by pipette from 10,000 ppm DMSO stock solutions into 24-well plates and mixed with agar. Lettuce seeds were placed onto the agar and the multi well plate was closed by another plate which contained also agar. After 7 days the compound was absorbed by the roots and the lettuce grew into the lid plate. The lettuce leaves were then cut off into the lid plate. Spodoptera eggs were pipetted through a plastic stencil onto a humid gel blotting paper and the lid plate was closed with it. The samples were assessed for mortality, anti-feedant effect and growth inhibition in comparison to untreated samples 6 days after infestation.
The following compounds gave an effect of at least 80% in at least one of the three categories (mortality, anti-feeding, or growth inhibition) at a test rate of 12.5 ppm: […]

[7] = test system: Myzus persicae (Green Peach Aphid); test: Example B13: activity against Myzus persicae (green peach aphid), 96-well sucrose solution; settings: 120 h, application rate 50 ppm, 5 days after infestation
Method in brief: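 Compounds, from 10,000 ppm DMSO stocks, mixed into sucrose solution in wells under stretched Parafilm, with aphids placed on the membrane in an inverted feeding setup. Mortality scored 5 days after infestation.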

[8] = test system: Plutella xylostella (Diamondback Moth); test: Example B14: activity against Plutella xylostella (diamondback moth), 96-well artificial diet; settings: 216 h, application rate 500 ppm, 9 days after infestation
Method in brief: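 Diet in 96-well plates was treated with aqueous dilutions of 10,000 ppm DMSO stocks, dried, and infested with 30 eggs per well via a netted lid; hatching L1 larvae fed on the diet. Mortality scored 9 days after infestation.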

[9] = test system: Euschistus heros (Neotropical Brown Stink Bug); test: Example B2: Euschistus heros (neotropical brown stink bug), soybean leaves sprayed, N2 nymphs; settings: 120 h, application rate 200 ppm, 5 days after infestation, read-out: effect in at least one of the two categories (mortality or growth inhibition)
Description: Example B2: Euschistus heros (Neotropical Brown Stink Bug)
Soybean leaves on agar in 24-well microtiter plates were sprayed with aqueous test solutions prepared from 10,000 ppm DMSO stock solutions. After drying the leaves were infested with N2 nymphs. The samples were assessed for mortality and growth inhibition in comparison to untreated samples 5 days after infestation.
The following compounds gave an effect of at least 80% in at least one of the two categories (mortality or growth inhibition) at an application rate of 200 ppm: […]

[10] = test system: Myzus persicae (Green Peach Aphid); test: Example B6: Myzus persicae (green peach aphid), feeding/contact activity; settings: 144 h, application rate 200 ppm, 6 days after infestation
Description: Example B6: Myzus persicae (Green Peach Aphid):Feeding/Contact Activity
Sunflower leaf discs were placed onto agar in a 24-well microtiter plate and sprayed with aqueous test solutions prepared from 10,000 ppm DMSO stock solutions. After drying, the leaf discs were infested with an aphid population of mixed ages. The samples were assessed for mortality 6 days after infestation.

CC(c1ncnn1-c1ncccn1)N(CC1CC1)C(=O)c1cc(C(F)(F)F)cc(C2(C)CC2C(F)(F)F)c1 (stereo not drawn) [P43, N-(cyclopropylmethyl)-3-[1-methyl-2-(trifluoromethyl)cyclopropyl]-N-[1-(2-pyrimidin-2-yl-1,2,4-triazol-3-yl)ethyl]-5-(trifluoromethyl)benzamide]
≥ 80%: percent effect (mortality or growth inhibition) at 200 ppm [1] | percent control (mortality, anti-feedant effect or growth inhibition) at 200 ppm [2] | percent effect (mortality or growth inhibition) at 200 ppm [3] | mortality at 12 ppm [4] | percent control (mortality, anti-feedant effect or growth inhibition) at 200 ppm [5] | percent effect (mortality, anti-feeding or growth inhibition) at 12.5 ppm [6] | mortality at 50 ppm [7] | mortality at 500 ppm [8]

CC(NC(=O)c1cc(C2CC2)nc(C(F)(F)F)c1)c1ncnn1-c1ncccn1 (stereo not drawn) [P54, 2-cyclopropyl-N-[1-(2-pyrimidin-2-yl-1,2,4-triazol-3-yl)ethyl]-6-(trifluoromethyl)pyridine-4-carboxamide]
≥ 80%: percent effect (mortality or growth inhibition) at 200 ppm [1] | percent effect (mortality or growth inhibition) at 200 ppm [9] | percent effect (mortality or growth inhibition) at 200 ppm [3] | mortality at 12 ppm [4] | percent control (mortality, anti-feedant effect or growth inhibition) at 200 ppm [5] | percent effect (mortality, anti-feeding or growth inhibition) at 12.5 ppm [6] | mortality at 50 ppm [7] | mortality at 500 ppm [8]

CC(c1ncnn1-c1ncccn1)N(CC1CC1)C(=O)c1cc(C2CC2)nc(C(F)(F)F)c1 (stereo not drawn) [P55, 2-cyclopropyl-N-(cyclopropylmethyl)-N-[1-(2-pyrimidin-2-yl-1,2,4-triazol-3-yl)ethyl]-6-(trifluoromethyl)pyridine-4-carboxamide]
≥ 80%: percent effect (mortality or growth inhibition) at 200 ppm [1] | percent effect (mortality or growth inhibition) at 200 ppm [9] | percent effect (mortality or growth inhibition) at 200 ppm [3] | mortality at 12 ppm [4] | percent effect (mortality, anti-feeding or growth inhibition) at 12.5 ppm [6] | mortality at 50 ppm [7] | mortality at 500 ppm [8]

CC(c1ncnn1-c1ncccn1)N(C)C(=O)c1cc(C(F)(F)F)cc(C(F)(F)C2CC2)c1 (stereo not drawn) [P58, 3-[cyclopropyl(difluoro)methyl]-N-methyl-N-[1-(2-pyrimidin-2-yl-1,2,4-triazol-3-yl)ethyl]-5-(trifluoromethyl)benzamide]
≥ 80%: percent effect (mortality or growth inhibition) at 200 ppm [1] | percent effect (mortality or growth inhibition) at 200 ppm [9] | percent control (mortality, anti-feedant effect or growth inhibition) at 200 ppm [2] | percent effect (mortality or growth inhibition) at 200 ppm [3] | mortality at 12 ppm [4] | percent control (mortality, anti-feedant effect or growth inhibition) at 200 ppm [5] | percent effect (mortality, anti-feeding or growth inhibition) at 12.5 ppm [6] | mortality at 50 ppm [7] | mortality at 500 ppm [8]

C[C@@H](c1ncnn1-c1ncccn1)N(CC1CC1)C(=O)c1cc(C2CC2)cc(C(F)(F)F)c1 [P73, 3-cyclopropyl-N-(cyclopropylmethyl)-N-[(1S)-1-(2-pyrimidin-2-yl-1,2,4-triazol-3-yl)ethyl]-5-(trifluoromethyl)benzamide]
≥ 80%: percent effect (mortality or growth inhibition) at 200 ppm [1] | percent effect (mortality or growth inhibition) at 200 ppm [9] | percent control (mortality, anti-feedant effect or growth inhibition) at 200 ppm [2] | percent effect (mortality or growth inhibition) at 200 ppm [3] | mortality at 200 ppm [10] | mortality at 12 ppm [4] | percent control (mortality, anti-feedant effect or growth inhibition) at 200 ppm [5]
